Measurements reported in patent publication US9017956B2, “Use of the genes in the Hog, Ras and cAMP pathway for treatment of fungal infection” (Nutrex Technology Co., Ltd., priority 2009, dated 2015).
“Also recorded” adds a separate entry of the source.

Assays:
[1] = tested on: C. neoformans serotype D strains JEC21 and B3501 and their deletion mutants; experiment: Antifungal drug sensitivity test: serially diluted cells spotted on YPD agar containing the drug; format: cell-based, Cryptococcus neoformans
Description: (§1) Each strain was incubated overnight at 30° C. in YPD medium, washed, serially diluted (1 to 10^4 dilutions) in dH2O, and spotted (3 μl) onto solid YPD medium containing indicated concentrations of stress-inducing agents or antifungal drugs as previously described in “Bahn Y S, Kojima K, Cox G M, Heitman J (2005) Mol Biol Cell 16: 2285-2300.” and “Bahn Y S, Kojima K, Cox G M, Heitman J (2006) Mol Biol Cell 17: 3122-3135”. To examine antifungal drug sensitivity, the cells were spotted on agar-solid YPD media containing amphotericin B (Sigma), fluconazole (Sigma), itraconazole (Sigma), ketoconazole (Sigma) and fludioxonil. Then spotted cells were incubated at 30° C. for 2-4 days and photographed.

[2] = tested on: C. neoformans serotype A H99 strain and its deletion mutants; experiment: as above; format: cell-based, Cryptococcus neoformans; settings: for drug sensitivity of hog1Δ mutant compared to WT / drug sensitivity of pbs2Δ mutant compared to WT / drug sensitivity of skn7Δ mutant compared to WT / drug sensitivity of ssk1Δ mutant compared to WT / drug sensitivity of ssk2Δ mutant compared to WT / drug sensitivity of tco2Δ mutant compared to WT: YPD agar, 30° C., 72 h
Description: as §1

C[C@@H]1[C@H](O)[C@@H](C)/C=C/C=C/C=C/C=C/C=C/C=C/C=C/[C@H](O[C@@H]2O[C@H](C)[C@@H](O)[C@H](N)[C@@H]2O)C[C@@H]2O[C@](O)(C[C@@H](O)C[C@@H](O)[C@H](O)CC[C@@H](O)C[C@@H](O)CC(=O)O[C@H]1C)C[C@H](O)[C@H]2C(=O)O [amphotericin B]
drug resistance of B3501 strain compared to JEC21 ([1]; B3501 (Hog1 constitutively phosphorylated)): higher resistance
drug sensitivity of JEC21 strain ([1]; JEC21 (Hog1 not constitutively phosphorylated), compared with ssk2Δ mutant in H99 background): hypersensitivity
effect of HOG1 mutation on drug sensitivity in JEC21 background ([1]; hog1Δ in JEC21): did not affect sensitivity
effect of PBS2 mutation on drug sensitivity in JEC21 background ([1]; pbs2Δ in JEC21): did not affect sensitivity
effect of SSK2 mutation on drug sensitivity in B3501 background ([1]; ssk2Δ in B3501): increased the amphotericin B sensitivity
effect of SSK2 mutation on drug sensitivity in JEC21 background ([1]; ssk2Δ in JEC21): did not affect sensitivity
drug sensitivity of aca1Δ mutant compared to WT ([2]; aca1Δ, H99 background): slightly higher AmpB susceptibility
drug sensitivity of cac1Δ mutant compared to WT ([2]; H99 background): hypersensitive
drug sensitivity of cac1Δ mutant compared to WT ([2]; H99 background, listed as AmpB): much higher AmpB-sensitivity
drug sensitivity of ena1Δ mutant ([2]; ena1Δ): did not show high sensitivity
drug sensitivity of ena1Δ nha1Δ double mutant ([2]; ena1Δ nha1Δ): considerably increased sensitivity
drug sensitivity of gpa1Δ mutant compared to WT ([2]; H99 background): hypersensitive
drug sensitivity of gpa1Δ mutant compared to WT ([2]; H99 background, listed as AmpB): much higher AmpB-sensitivity
drug sensitivity of hog1Δ cac1Δ double mutant ([2]; compared to single mutants): even more sensitive
drug sensitivity of hog1Δ pka1Δ double mutant ([2]; hog1Δ pka1Δ, compared to single mutants): even more sensitive
drug sensitivity of hog1Δ mutant compared to WT ([2]; H99 background): dramatic hypersensitivity
drug sensitivity of hsp12Δ mutant compared to WT ([2]; hsp12Δ, H99 background): slightly higher susceptibility
drug sensitivity of hsp122Δ mutant compared to WT ([2]; hsp122Δ, H99 background): slightly higher susceptibility
drug sensitivity of nha1Δ mutant ([2]; nha1Δ): did not show high sensitivity
drug sensitivity of pbs2Δ mutant compared to WT ([2]; H99 background): dramatic hypersensitivity
drug sensitivity of pka1Δ mutant compared to WT ([2]; H99 background): hypersensitive
drug sensitivity of pka1Δ mutant compared to WT ([2]; H99 background, listed as AmpB): increased susceptibility
drug sensitivity of ras1Δ aca1Δ double mutant ([2]; compared to each single mutant): hypersensitive
drug sensitivity of ras1Δ aca1Δ double mutant ([2]; compared to each single mutant, listed as AmpB): higher AmpB-sensitivity than each single mutant
drug sensitivity of ras1Δ cac1Δ double mutant ([2]; ras1Δ cac1Δ, compared to each single mutant): even higher AmpB susceptibility than each single mutant
drug sensitivity of ras1Δ mutant compared to WT ([2]; ras1Δ, H99 background): higher susceptibility
drug sensitivity of ras2Δ mutant compared to WT ([2]; ras2Δ, H99 background): slightly more sensitive
drug sensitivity of skn7Δ mutant compared to WT ([2]; H99 background): WT-levels of resistance
drug sensitivity of ssk1Δ mutant compared to WT ([2]; H99 background): dramatic hypersensitivity
drug sensitivity of ssk2Δ mutant compared to WT ([2]; H99 background): dramatic hypersensitivity
drug sensitivity of tco2Δ mutant compared to WT ([2]; H99 background): hypersensitivity

OC(Cn1cncn1)(Cn1cncn1)c1ccc(F)cc1F [fluconazole]
drug sensitivity of cac1Δ mutant compared to WT ([2]; H99 background): nearly as resistant
drug sensitivity of gpa1Δ mutant compared to WT ([2]; H99 background): nearly as resistant
drug sensitivity of hog1Δ cac1Δ double mutant ([2]; compared to single mutants): hypersensitivity; also recorded: hypersensitive
drug sensitivity of hog1Δ mutant compared to WT ([2]; H99 background): hyper-resistance
drug sensitivity of pbs2Δ mutant compared to WT ([2]; H99 background): hyper-resistance
drug sensitivity of pka1Δ pka2Δ double mutant compared to WT ([2]; pka1Δ pka2Δ, H99 background): nearly as resistant
drug sensitivity of pka1Δ mutant compared to WT ([2]; H99 background): nearly as resistant
drug sensitivity of pka2Δ mutant compared to WT ([2]; pka2Δ, H99 background): nearly as resistant
drug sensitivity of skn7Δ mutant compared to WT ([2]; H99 background): higher resistance
drug sensitivity of ssk1Δ mutant compared to WT ([2]; H99 background): hyper-resistance
drug sensitivity of ssk2Δ mutant compared to WT ([2]; H99 background): hyper-resistance
drug sensitivity of tco2Δ mutant compared to WT ([2]; H99 background): higher resistance

CC(=O)N1CCN(c2ccc(OCC3COC(Cn4ccnc4)(c4ccc(Cl)cc4Cl)O3)cc2)CC1 (centres unmarked) [ketoconazole]
drug sensitivity of hog1Δ cac1Δ double mutant ([2]; compared to single mutants): hypersensitivity; also recorded: hypersensitive
drug sensitivity of hog1Δ mutant compared to WT ([2]; H99 background): hyper-resistance
drug sensitivity of pbs2Δ mutant compared to WT ([2]; H99 background): hyper-resistance
drug sensitivity of skn7Δ mutant compared to WT ([2]; H99 background): higher resistance
drug sensitivity of ssk1Δ mutant compared to WT ([2]; H99 background): hyper-resistance
drug sensitivity of ssk2Δ mutant compared to WT ([2]; H99 background): hyper-resistance
drug sensitivity of tco2Δ mutant compared to WT ([2]; H99 background): higher resistance
